{
  "source": "patent US20100227897A1",
  "about": "“Composition for Controlling Colorado Potato Beetles” (FMC CORPORATION, priority 2006, published 2010)",
  "system": "Colorado potato beetles (Leptinotarsa decemlineata Say)",
  "assay": "Field test of foliar sprays on potato plots: efficacy on Colorado potato beetles, number of larvae alive",
  "format": "in vivo",
  "conditions": "for Number Larvae Alive 3 DAT: 3 days after treatment; for Number Larvae Alive 3 DAT / Number Larvae Alive 7 DAT / Number Larvae Alive 14 DAT / Number Larvae Alive 21 DAT / Number Larvae Alive 28 DAT: foliar spray; for Number Larvae Alive 7 DAT: 7 days after treatment; for Number Larvae Alive 14 DAT: 14 days after treatment; for Number Larvae Alive 21 DAT: 21 days after treatment; for Number Larvae Alive 28 DAT: 28 days after treatment; for Number Larvae Alive 0 Days: before treatment (0 days, baseline)",
  "experimental": "The compositions of the present invention were tested for Colorado Potato Beetle activity in the following manner:\nTest compositions made up of Fury 10 EW, Mospilan 20 SP and Regent 200 SC were prepared that provided appropriate rates of application of combinations of zeta-cypermethrin, acetamiprid and fipronil, as well as zeta-cypermethrin, acetamiprid and fipronil alone.\nThe test was set up as a randomized complete block with 3 replicates. Each test plot was 24 meters square containing 3 rows of 50 plants. All test materials were applied as a foliar spray in 300 liters per hectare of water using a PILMET 212 sprayer at 0.35 Mpa. Observations were made before treatment (0 days), 3 days after treatment (DAT), 7 DAT, 14 DAT, 21 DAT and 28 DAT. For each observation 50 plants were inspected. For each observation the number of larvae reported was the total on the 10 most infested plants. Results reported are an average of three replicates.",
  "data": [
    {"smiles": "CC1(C)C(C=C(Cl)Cl)C1C(=O)OC(C#N)c1cccc(Oc2ccccc2)c1", "note": "[A, (R,S)-α-cyano-3-phenoxybenzyl-(1R,S)-cis-trans-3-(2,2-dichlorovinyl)-2,2-dimethylcyclopropanecarboxylate]", "values": [
      {"measurement": "Number Larvae Alive 3 DAT", "setting": "A 200 ml per hectare", "value": 10},
      {"measurement": "Number Larvae Alive 7 DAT", "setting": "A 200 ml per hectare", "value": 18},
      {"measurement": "Number Larvae Alive 14 DAT", "setting": "A 200 ml per hectare", "value": 15},
      {"measurement": "Number Larvae Alive 21 DAT", "setting": "A 200 ml per hectare", "value": 43},
      {"measurement": "Number Larvae Alive 28 DAT", "setting": "A 200 ml per hectare", "value": 20},
      {"measurement": "Number Larvae Alive 0 Days", "setting": "A 200 ml per hectare, total on 10 most infested plants, average of 3 replicates", "value": 303}
    ]},
    {"smiles": "C/C(=N\\C#N)N(C)Cc1ccc(Cl)nc1", "note": "[B, (E)-N^1-[(6-chloro-3-pyridyl)methyl]-N^2-cyano-N^1-methylacetamidine]", "values": [
      {"measurement": "Number Larvae Alive 3 DAT", "setting": "B 100 g per hectare", "value": 8},
      {"measurement": "Number Larvae Alive 7 DAT", "setting": "B 100 g per hectare", "value": 22},
      {"measurement": "Number Larvae Alive 14 DAT", "setting": "B 100 g per hectare", "value": 18},
      {"measurement": "Number Larvae Alive 21 DAT", "setting": "B 100 g per hectare", "value": 38},
      {"measurement": "Number Larvae Alive 28 DAT", "setting": "B 100 g per hectare", "value": 47},
      {"measurement": "Number Larvae Alive 0 Days", "setting": "B 100 g per hectare", "value": 362}
    ]},
    {"smiles": "N#Cc1nn(-c2c(Cl)cc(C(F)(F)F)cc2Cl)c(N)c1[S+]([O-])C(F)(F)F", "note": "(stereo not drawn) [C, 5-amino-1-(2,6-dichloro-α,α,α-trifluoro-p-tolyl)-4-trifluoromethylsulfinylpyrazole-3-carbonitrile]", "values": [
      {"measurement": "Number Larvae Alive 3 DAT", "setting": "C 100 ml per hectare", "value": 2},
      {"measurement": "Number Larvae Alive 7 DAT", "setting": "C 100 ml per hectare", "value": 0},
      {"measurement": "Number Larvae Alive 14 DAT", "setting": "C 100 ml per hectare", "value": 0},
      {"measurement": "Number Larvae Alive 21 DAT", "setting": "C 100 ml per hectare", "value": 22},
      {"measurement": "Number Larvae Alive 28 DAT", "setting": "C 100 ml per hectare", "value": 17},
      {"measurement": "Number Larvae Alive 0 Days", "setting": "C 100 ml per hectare", "value": 359}
    ]}
  ]
}
